Legend:
PBR [1] = target: T1, PBR (Rattus norvegicus, UniProt P16257); assay: In vivo biodistribution model: OB:striatum uptake; design: species or system Wistar rats; conditions: injection via lateral tail vein, 2, 10, 30 or 60 min, in words, compared with PBR06
T1 construct: OB is known to express higher levels of PBR compared with other areas of rat brain; from tissue; host or cells: living Wistar rats; olfactory bulb and striatum sampled
Method: Example 11 describes the rat biodistribution model that was used to compare in vivo imaging agents of the invention with PBR06. […] As OB is known to express higher levels of PBR compared with other areas of rat brain (see “Handbook of Substance Abuse” by Tarter, Ammerman and Ott; Springer 1998: 398-99) the ratio OB:striatum is a measure of specificity of test compound uptake.
PBR06 (synthesised according to Briard et al J Med Chem 2009; 52: 688-699) and in vivo imaging agents 1-3 were tested in an in vivo biodistribution model and their respective biodistributions compared.
Adult male Wistar rats (200-300 g) were injected with 1-3 MBq of test compound via the lateral tail vein. At 2, 10, 30 or 60 min (n=3) after injection, rats were euthanised and tissues or fluids were sampled for radioactive measurement on a gamma counter.

[2] = Metabolism assay: intact test compound in rat brain by HPLC; type: in vivo, Wistar rats; conditions: 60 minutes post-injection; for proportion intact in the brain (in words): compared with PBR06
Method: Example 12 describes the assay used to evaluate the amount of intact test in vivo imaging agent in rat brain at 60 minutes post-injection.
Brain tissue samples were collected from adult male Wistar rats (200-300 g) at 60 minutes after injection of test in vivo imaging agent. These samples were then processed via solvent extraction (see below) to extract the ^18F-labelled parent along with any ^18F-labelled metabolites, before introduction to the HPLC.
Brain (minus cerebellum +medulla pons) was homogenized with 10 mls of ice-cold Acetonitrile (5000 rpm for 5 mins) to extract all the ^18F-labelled species. The resulting supernatant was then evaporated to dryness (rotary evaporation at 40° C.), concentrated in 2.5 mls of mobile phase, filtered and 1 ml was injected onto the HPLC.
The HPLC set up for ^18F analysis was connected to a dual BGO radio & UV detector. A μBondapak C18 prep column was used having dimensions 7.8×300 mm; 10 μm; 125 Å. An isocratic elution system was used using between 30-40% water and between 60-70% acetonitrile. The flow rate was 3 ml/min. The aqueous to organic phase ratio was varied for each test in vivo imaging agent to obtain a parent peak at retention time at or around 10 min±2 min.

Wistar rat heart PBR = Wistar rat heart PBR (Rattus norvegicus, UniProt P16257); assay: biochemical
Method: Affinity for PBR was screened using a method adapted from Le Fur et al (Life Sci. 1983; USA 33: 449-57).
Each test compound (dissolved in 50 mM Tris-HCl, pH 7.4, 10 mM MgCl2 containing 1% DMSO) competed for binding to Wistar rat heart PBR against 0.3 nM [^3H] […] The reaction was carried out in 50 mM Tris-HCl, pH 7.4 10 mM MgCl2 for 15 minutes at 25° C.

[3] = Briard et al J Med Chem 2009; cited from earlier work
[4] = cited from earlier work
PBR [5] = target: PBR (Homo sapiens, UniProt P30536); conditions: in vivo; cited from earlier work
PBR (Homo sapiens, UniProt P30536), sequence (P30536 whole entry, species assumed): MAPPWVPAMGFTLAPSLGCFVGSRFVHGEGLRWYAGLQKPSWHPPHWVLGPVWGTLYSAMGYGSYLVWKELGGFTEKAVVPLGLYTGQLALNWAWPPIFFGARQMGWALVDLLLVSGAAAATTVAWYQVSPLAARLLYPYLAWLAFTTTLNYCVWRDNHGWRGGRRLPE

T1 sequence (P16257 whole entry): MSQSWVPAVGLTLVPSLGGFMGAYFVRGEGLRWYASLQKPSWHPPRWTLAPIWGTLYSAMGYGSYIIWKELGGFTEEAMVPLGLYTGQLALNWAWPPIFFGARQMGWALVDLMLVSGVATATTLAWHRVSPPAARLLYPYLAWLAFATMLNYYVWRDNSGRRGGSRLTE
Wistar rat heart PBR, sequence (P16257 whole entry): as above

O=C(C[18F])N(Cc1cccc2c1OCC2)c1ccccc1Oc1ccccc1 [in vivo imaging agent 1]
OB:striatum uptake (ratio of uptake in olfactory bulb compared to striatum) (PBR [1]): taken up relatively more in the OB as compared with the striatum
percentage of radioactivity in the brain representing intact test compound [2]: 93%
proportion intact in the brain (in words) [2]: even higher proportion intact in the brain at 60 minutes post-injection as compared with PBR06
Ki (Wistar rat heart PBR): 0.31 nM

O=C(C[18F])N(Cc1cccc2c1OCCO2)c1ccccc1Oc1ccccc1 [in vivo imaging agent 3]
OB:striatum uptake (ratio of uptake in olfactory bulb compared to striatum) (PBR [1]): comparable with PBR06
percentage of radioactivity in the brain representing intact test compound [2]: 82%
Ki (Wistar rat heart PBR): 1.14 nM

COc1ccc(OC)c(CN(C(=O)C[18F])c2ccccc2Oc2ccccc2)c1 [PBR06, reference compound]
OB:striatum uptake (ratio of uptake in olfactory bulb compared to striatum) (PBR [1]): less than optimal for in vivo imaging
percentage of radioactivity in the brain representing intact test compound [2]: 90%
metabolism in the periphery [3]: metabolised quite rapidly in the periphery
penetration of metabolites through the blood-brain barrier [3]: do not penetrate the blood-brain barrier
Ki (Wistar rat heart PBR): 0.28 nM

O=C(C[18F])N(Cc1cccc2c1OCO2)c1ccccc1Oc1ccccc1 [in vivo imaging agent 2]
OB:striatum uptake (ratio of uptake in olfactory bulb compared to striatum) (PBR [1]): comparable with PBR06
percentage of radioactivity in the brain representing intact test compound [2]: 92%
proportion intact in the brain (in words) [2]: even higher proportion intact in the brain at 60 minutes post-injection as compared with PBR06
Ki (Wistar rat heart PBR): 2.03 nM

CC[C@@H](C)N([11CH3])C(=O)c1cc2ccccc2c(-c2ccccc2Cl)n1 [(R)-[^11C]PK11195]
protein binding [4]: high protein binding
specific to non-specific binding (PBR [5]): low specific to non-specific binding

CC1(C)Cc2cccc(CN(C(=O)C[18F])c3ccccc3Oc3ccccc3)c2O1 [in vivo imaging agent 4]
Ki (Wistar rat heart PBR): 2.66 nM
